# Earlier results in US20100317631A1, “Gel Composition and Transcrotal Application of a Composition for the Treatment of Hypogonadism” (Dr. August Wolff GmbH & Co. Arzneimittel, priority 2000, published 2010).
# [1] = intra muscular, standard dosage 250 mg
compound,measurement,setting,value
CCCCCCC(=O)O[C@H]1CC[C@H]2[C@@H]3CCC4=CC(=O)CC[C@]4(C)[C@H]3CC[C@]12C [testosterone enanthat],terminal half-time value,intra muscular administration,4.5 days
same,testosterone concentrations in serum achieved,[1],up to 50 nmol/l
same,time at which serum testosterone passes the lower limit of normal range,[1],> 12 days
